Test results from PMC12298624, “Anti-Infective Properties, Cytotoxicity, and In Silico ADME Parameters of Novel 4′-(Piperazin-1-yl)benzanilides” (Pharmaceuticals, 2025).
Where two headings read alike, the source gives them in different places.

Legend:
P. falciparum NF54 [1] = system: P. falciparum NF54; set-up: method as in PMID 34832891, PMID 36558954; settings: Figure 1, earlier studies; ref [12],[13]; read-out: PfNF54 IC50; cited from earlier work
E. coli NCTC 13353 = assay: MIC/MBC microbroth dilution (EUCAST); format: cell-based, Escherichia coli; settings: Escherichia coli; for MBC: NCTC13353; for MIC: NCTC13353, read-out: MIC
Procedure: (§1) Minimum inhibitory concentrations (MIC values) were obtained using the microbroth dilution method as stated in the EUCAST guidelines. Tests were conducted on cation adjusted Mueller–Hinton broth (caMHB) or agar (caMHA). These were prepared and stored following the manufacturer’s guidelines. Biological organisms were prepared via growth on either Luria–Bertani (LB) or cation adjusted Mueller–Hinton agar plates. These were grown for 24 h at 37 °C, except for Micrococcus luteus where MICs took longer to grow and as a consequence were read after 48 h once a clear positive control could be observed. For the MIC experiment, the bacteria were prepared using the McFarland 0.5 standard and diluted 1 in 100 or 1 in 10 in caMHB following EUCAST and CSLI guidelines for the preparation of bacteria. Testing of the compounds using the microbroth dilution method took place in 96-well plates. Serial 2-fold dilutions of compounds in caMHB covering a range from 256 µg/mL to 0.25 µg/mL were prepared. Bacteria preparations (McFarland) were added to the compound dilutions, further halving the compound concentrations. The plate was then incubated for 18 h at 37 °C. Controls for the MIC experiments included a bacterial growth (positive) control of bacteria and caMHB only and a media only (negative) control. After incubation, the plates were read, whereby the positive control of bacteria was visible and the negative control was clear of contamination. The last clear well, where there is no growth of bacteria, was counted as the MIC value. […] The lowest concentration without any bacterial growth was counted as the MBC value. The following pathogens were used: Pseudomonas aeruginosa NCTC 13437, Escherichia coli NCTC 13353, Bacillus subtilis 168a, Serratia marcescens NCTC 9940, Micrococcus luteus ATCC 10240, Staphylococcus aureus JE2 USA 300, Acinetobacter baumannii ATCC 19606, and Klebsiella pneumoniae ATCC 700603. A concentration range of 256 µg/mL to 0.25 µg/mL of a combination of ciprofloxacin and meropenem against E. coli 25922 was used as an antibiotic control to ensure correct dilution and performance of the assay.

M. luteus ATCC 10240 = assay: MIC/MBC microbroth dilution (EUCAST); format: cell-based, Micrococcus luteus; settings: for MBC: read-out: MBC
Procedure: as §1

B. subtilis 168a = assay: MIC/MBC microbroth dilution (EUCAST); format: cell-based, Bacillus subtilis; settings: Bacillus subtilis, 168A; for MIC: read-out: MIC
Procedure: as §1

A. baumannii ATCC 19606 = assay: MIC/MBC microbroth dilution (EUCAST); format: cell-based, Acinetobacter baumannii; settings: Acinetobacter baumannii; for MBC: ATCC19606; for MIC: ATCC19606, read-out: MIC
Procedure: as §1

[2] = system: K. pneumoniae ATCC 700603; assay: MIC/MBC microbroth dilution (EUCAST); format: cell-based; settings: Klebsiella pneumoniae, ATCC700603
Procedure: as §1

S. marcescens NCTC 9940 = assay: MIC/MBC microbroth dilution (EUCAST); format: cell-based; settings: Serratia marcescens, NCTC9940
Procedure: as §1

P. aeruginosa NCTC 13437 = assay: MIC/MBC microbroth dilution (EUCAST); format: cell-based; settings: Pseudomonas aeruginosa, NCTC13437
Procedure: as §1

S. aureus JE2 USA 300 = assay: MIC/MBC microbroth dilution (EUCAST); format: cell-based; settings: Staphylococcus aureus, USA300, S. aureus JE2 USA 300
Procedure: as §1

[3] = Resazurin-based in vitro cytotoxicity with L-6 cells; format: cell-based, rat; settings: rat
In short: (§2)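 Compounds tested in eleven 3-fold serial dilutions from 100 to 0.002 µg/mL over 70 h incubation. IC50 obtained by linear regression from sigmoidal dose–inhibition curves.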

[4] = Parallel artificial membrane permeability assay (PAMPA); settings: PAMPA, PBS pH 7.4, 200 µM, 5 h, room temperature; for Papp at 5 h, 200 µM: pH 7.4, Pe
In short: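 Passive permeability was measured across a lipid–oil–lipid triple-layer membrane with 200 µM final compound in PBS pH 7.4 in the donor, PBS in the acceptor, 5 h at room temperature, quadruplicates. Donor and acceptor concentrations were read by UV absorbance (200–300 nm); data accepted only when recovery exceeded 70%.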

P. falciparum NF54 [5] = assay: In vitro microplate assay against P. falciparum NF54 (3H-hypoxanthine incorporation); format: cell-based, Plasmodium falciparum; settings: read-out: P.f.NF54 IC50
In short: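 Parasites exposed to eleven 3-fold drug dilutions spanning 100 to 0.002 µg/mL for 48 h, then ^3H-hypoxanthine (0.5 µCi/well) added for a further 24 h. Incorporated radioactivity counted by liquid scintillation after harvesting onto glass fiber filters. IC50 from sigmoidal inhibition curves by linear regression.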

[6] = Resazurin-based in vitro cytotoxicity with HepG2 cells; format: cell-based, human; settings: HepG2 cells; human hepatocarcinoma cells, 48 h
In short: (§3)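 HepG2 cells, 5000 per well in DMEM with 1% FBS, exposed 48 h at 37° C to ten 3-fold dilutions (100.0–0.005 µM). Then 50 µM resazurin for 3 h, fluorescence read at 555/570 nm, IC50 calculated; doxorubicin as control.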

L-6 cells = assay: Resazurin-based in vitro cytotoxicity with L-6 cells; format: cell-based, rat
In short: as §2

HepG2 cells = assay: Resazurin-based in vitro cytotoxicity with HepG2 cells; format: cell-based, human
In short: as §3

[7] = Micrococcus luteus, ATCC10240, M. luteus ATCC 10240
[8] = Micrococcus luteus, ATCC10240, M. luteus ATCC 10240, read-out: MIC
[9] = Plasmodium falciparum, NF54, chloroquine-sensitive strain NF54, erythrocytic stages

| Molecule | IC50 (P. falciparum NF54 [1]) | MBC (E. coli NCTC 13353) | MIC (E. coli NCTC 13353) | MIC (M. luteus ATCC 10240; [8]) | MBC (B. subtilis 168a) | MIC (B. subtilis 168a) | MBC (A. baumannii ATCC 19606) | MIC (A. baumannii ATCC 19606) | MBC [2] | MIC [2] | MBC (S. marcescens NCTC 9940) | MIC (S. marcescens NCTC 9940) | MBC (P. aeruginosa NCTC 13437) | MIC (P. aeruginosa NCTC 13437) | MBC (S. aureus JE2 USA 300) | MIC (S. aureus JE2 USA 300) | IC50 at 70 h [3] | Papp at 5 h, 200 µM [4] | IC50 (P. falciparum NF54 [5]; [9]) | IC50 at 48 h [6] | also measured |
| --- | --- | --- | --- | --- | --- | --- | --- | --- | --- | --- | --- | --- | --- | --- | --- | --- | --- | --- | --- | --- | --- |
| CC(C)(C)OC(=O)N1CCN(c2ccccc2NC(=O)c2cccc(C(F)(F)F)c2Oc2ccc(F)cc2)CC1 [MMV030666, tert-Butyl-4-{2-[2-(4-fluorophenoxy)-3-(trifluoromethyl)benzamido]phenyl}pipera-zine-1-carboxylate] | 0.41 µM | – | – | – | – | – | – | – | – | – | – | – | – | – | – | – | – | – | – | – | – |
| CC(C)(C)OC(=O)N1CCN(c2ccc(NC(=O)c3cccc(C(F)(F)F)c3Nc3ccc(F)cc3)cc2)CC1 [derivate IV] | 0.54 µM | – | – | – | – | – | – | – | – | – | – | – | – | – | – | – | – | – | – | – | – |
| CC(C)(C)OC(=O)N1CCN(c2ccc(NC(=O)c3cccc(C(F)(F)F)c3Oc3ccc(F)cc3)cc2)CC1 [derivate I] | 0.27 µM | – | – | – | – | – | – | – | – | – | – | – | – | – | – | – | – | – | – | – | – |
| O=C(c1cccc(C(F)(F)F)c1Oc1ccc(F)cc1)N1CCNCC1 [Compound 52, [2-(4-Fluorophenoxy)-3-(trifluoromethyl)phenyl](piperazin-1-yl)methanon] | – | > 256 µg/mL | > 256 µg/mL | 256 µg/mL | > 256 µg/mL | > 256 µg/mL | > 256 µg/mL | 256 µg/mL | > 256 µg/mL | > 256 µg/mL | > 256 µg/mL | > 256 µg/mL | > 256 µg/mL | > 256 µg/mL | > 256 µg/mL | > 256 µg/mL | 136 µM | 8.35 ×10⁻⁶ cm/s | 23.2 µM | > 100 µM | MBC (M. luteus ATCC 10240; [7]): 256 µg/mL |
| CC(C)(C)OC(=O)N1CCN(c2ccc(NC(=O)c3cccc(C(F)(F)F)c3Sc3ccc(F)cc3)cc2)CC1 [derivate III] | 0.15 µM | – | – | – | – | – | – | – | – | – | – | – | – | – | – | – | – | – | – | – | – |
| O=C(Nc1ccc(N2CCNCC2)cc1)c1cccc(C(F)(F)F)c1Sc1ccc(F)cc1 [Compound 62, 2-[(4-Fluorophenyl)sulfanyl]-N-[4-(piperazin-1-yl)phenyl]-3-(trifluoromethyl)benz-amide] | – | > 256 µg/mL | > 256 µg/mL | 128 µg/mL | 256 µg/mL | 128 µg/mL | > 256 µg/mL | 256 µg/mL | 256 µg/mL | 256 µg/mL | > 256 µg/mL | > 256 µg/mL | > 256 µg/mL | > 256 µg/mL | 128 µg/mL | 128 µg/mL | 13.1 µM | 6.51 ×10⁻⁶ cm/s | 1.66 µM | 9.3 µM | MBC (M. luteus ATCC 10240; [7]): 128 µg/mL; Pe [4]: 4.41 10^−6 cm/s |
| Nc1cccc(C(=O)Nc2ccc(N3CCNCC3)cc2)c1Oc1ccc(F)cc1 [Compound 65, 3-Amino-2-(4-fluorophenoxy)-N-[4-(piperazin-1-yl)phenyl]benzamide] | – | > 256 µg/mL | > 256 µg/mL | > 256 µg/mL | > 256 µg/mL | > 256 µg/mL | > 256 µg/mL | > 256 µg/mL | > 256 µg/mL | > 256 µg/mL | > 256 µg/mL | > 256 µg/mL | > 256 µg/mL | > 256 µg/mL | 256 µg/mL | 256 µg/mL | 157 µM | 5.76 ×10⁻⁶ cm/s | 7 µM | > 100 µM | MBC (M. luteus ATCC 10240; [7]): > 256 µg/mL |
| O=C(Nc1ccc(N2CCNCC2)cc1)c1cccc(C(F)(F)F)c1Oc1ccccc1 [Compound 58, 2-Phenoxy-N-[4-(piperazin-1-yl)phenyl]-3-(trifluoromethyl)benzamide] | – | > 256 µg/mL | > 256 µg/mL | 128 µg/mL | 256 µg/mL | 128 µg/mL | > 256 µg/mL | 256 µg/mL | 256 µg/mL | 256 µg/mL | > 256 µg/mL | > 256 µg/mL | > 256 µg/mL | > 256 µg/mL | 128 µg/mL | 128 µg/mL | 25.9 µM | 4.98 ×10⁻⁶ cm/s | 3.81 µM | 5.8 µM | MBC (M. luteus ATCC 10240; [7]): 128 µg/mL |
| CC(C)(C)C(=O)N1CCN(c2ccc(NC(=O)c3cccc(C(F)(F)F)c3Oc3ccc(F)cc3)cc2)CC1 [derivate II] | 0.58 µM | – | – | – | – | – | – | – | – | – | – | – | – | – | – | – | – | – | – | – | – |
| 2-(4-Fluorophenoxy)-N-[4-(pyrrolidin-4-yl)phenyl]-3-(trifluoromethyl)benzamide [Compound 34] | – | – | – | – | – | – | – | – | – | – | – | – | – | – | – | – | – | – | – | – | IC50 (L-6 cells): 185 µM; IC50 (P. falciparum NF54 [5]; chloroquine-sensitive strain NF54, erythrocytic stages): 1.68 µM; IC50 (HepG2 cells): 39.8 µM |
| O=C(Nc1ccc(N2CCNCC2)cc1)c1ccccc1Oc1ccccc1 [Compound 64, 2-Phenoxy-N-[4-(piperazin-1-yl)phenyl]benzamide] | – | > 256 µg/mL | > 256 µg/mL | 16 to 64 µg/mL | 256 µg/mL | 128 µg/mL | > 256 µg/mL | 256 µg/mL | > 256 µg/mL | 256 µg/mL | > 256 µg/mL | > 256 µg/mL | > 256 µg/mL | > 256 µg/mL | 64 µg/mL | 32 µg/mL | 40.6 µM | 7.67 ×10⁻⁶ cm/s | 2.33 µM | 12.3 µM | MIC (M. luteus ATCC 10240; M. luteus ATCC 10240): 32 µg/mL |
